Reference: paper PMC12614342, “Azetidine amino acid biosynthesis by non-haem iron-dependent enzymes” (Nature Chemistry, 2025)

What was measured:
PolF [1] = molecular target: T1, PolF (Streptomyces asoensis, UniProt C1IC29); conditions: Fe(II)2 form; L-Ile bidentate on Fe1; TEV-cleaved tagless protein, crystals grown with 15 mM L-Ile, pH 8.5
PolE = molecular target: T2, PolE (Streptomyces asoensis, UniProt C1IC30); conditions: Fe(II), BH4, O2, ascorbate; 50 mM HEPES pH 7.6, 25 °C
T2 construct: gene Saso_24180

PolF [2] = molecular target: T1, PolF; conditions: Fe(II), O2, ascorbate; 50 mM HEPES pH 7.6, 25 °C (stopped-flow 5 °C, no ascorbate)

T2 sequence (C1IC30 entry or part of it): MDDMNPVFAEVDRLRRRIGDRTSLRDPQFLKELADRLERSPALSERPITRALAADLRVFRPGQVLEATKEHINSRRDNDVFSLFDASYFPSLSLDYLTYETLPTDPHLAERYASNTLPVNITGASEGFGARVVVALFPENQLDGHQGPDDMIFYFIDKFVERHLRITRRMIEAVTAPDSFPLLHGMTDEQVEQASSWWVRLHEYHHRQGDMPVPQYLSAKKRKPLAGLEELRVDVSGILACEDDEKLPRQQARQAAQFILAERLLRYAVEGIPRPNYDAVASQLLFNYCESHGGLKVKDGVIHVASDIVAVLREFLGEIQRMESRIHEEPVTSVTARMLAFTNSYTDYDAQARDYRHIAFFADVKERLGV

Row | Compound | X-ray crystal structure of the complex (PolF [1]) | LC-MS of dansylated desaturation product (PolE) | LC-MS of dansylated products; stopped-flow at 614 nm (PolF [2])
1 | CC[C@H](C)[C@H](N)C(=O)O [L-Ile] | The L-Ile substrate directly coordinates Fe1 in a bidentate fashion | PolE catalysed the desaturation of L-Ile in the presence of BH4 | 
2 | CC(C)[C@H](N)C(=O)O [L-Val] |  |  | the reaction with L-Val yielded a product with a −4-Da modification
